This is an account of results in US7179943B2, “Bicyclic derivatives that modulate voltage-gated potassium channels and methods of use thereof” (Wyeth, priority 2004, dated 2007).

Data set [1] concerns the target T1, human Kv1.1/Kvβ1 potassium ion channel complex (Homo sapiens, UniProt Q09470).
T1 construct: expressed in transfected cells; host or cells: Xenopus oocytes injected with cRNA
Briefly: Xenopus oocytes current assay (inhibition of inactivation, voltage clamp). In kind it is cell-based. As to conditions: Xenopus oocytes expressing hKv1.1/hKvβ1, relative to control bath solution; for activation at 50 µM: read-out: Percent Increase in Steady State Current Of human Kv1.1/Kvβ1 @ a concentration of 50 μM. The procedure: The compounds of formula I were examined for their ability to inhibit the inactivation of the human Kv1.1/Kvβ1 potassium ion channel complex in vitro using electrophysiological current recordings on inactivating Kv1.1/Kvβ1 channels expressed in Xenopus oocytes. Xenopus oocytes were harvested from frogs under general anesthesia using aseptic techniques. Oocytes were treated with 2 mg/ml collagenase for 1–1.5 hr, defolliculated, and injected with 40 nL cRNA (a mixture of hky1.1 and hKvβ1) produced using standard molecular biological techniques (Sambrook, et al., 1989, Molecular Cloning: A Laboratory Manual). The concentration of hKv1.1/hKvp1 cRNA varies, but was generally about 50 ng/μL hKv1.1 and […] hKβ1.
Currents were recorded using standard voltage clamp amplifiers at room temperature. Recordings were performed in the bath solution “ND-96” containing 96 mM NaCl, 2 mM KCl, 1 mm CaCl2, 1 mM MgCl2, 10 mM HEPES and […] Gentamycin (pH=7.6). The pipette (electrode) solution generally consisted of […]. Electrodes were made from WPI TW150F-4 borosilicate glass (or equivalent) and typically had resistances of 0.5–1.5 Mohms. The standard current-voltage (IV) pulse protocol consisted of voltage steps from −60 mV to +50 mV, in 10 mV increments for 200 ms, at a frequency of one IV set per 2 minutes. Data were digitized and analyzed by standard software packages.
Solutions of the test compounds consisting of test compounds dissolved in bath solution were applied by bath perfusion using gravity or pump-driven flow. A minimum of 2 mL (10 times the bath volume) over 3 minutes were flowed for each compound concentration tested. Data were averaged across at least 3 cells tested for each concentration.
Test compounds were examined for their ability to inhibit the inactivation of the steady state portion of the IV curve.

Structures can show the parent of a compound that is named as a salt.

T1 sequence (Q09470 whole entry, one chain of several): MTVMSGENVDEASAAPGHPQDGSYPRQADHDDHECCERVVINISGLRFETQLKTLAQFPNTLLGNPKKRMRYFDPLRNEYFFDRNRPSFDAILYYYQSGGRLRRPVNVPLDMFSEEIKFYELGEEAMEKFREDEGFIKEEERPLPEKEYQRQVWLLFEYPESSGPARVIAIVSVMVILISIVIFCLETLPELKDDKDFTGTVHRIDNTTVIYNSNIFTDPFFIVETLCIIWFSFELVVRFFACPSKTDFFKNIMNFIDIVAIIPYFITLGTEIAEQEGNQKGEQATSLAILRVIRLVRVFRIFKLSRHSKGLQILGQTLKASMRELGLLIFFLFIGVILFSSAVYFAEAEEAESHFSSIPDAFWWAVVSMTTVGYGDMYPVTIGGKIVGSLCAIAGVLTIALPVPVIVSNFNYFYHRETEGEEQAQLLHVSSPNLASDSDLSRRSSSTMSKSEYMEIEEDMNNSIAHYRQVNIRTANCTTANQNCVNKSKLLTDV

As a reminder, the melting point is the temperature, or range, at which the solid turns liquid. In the case of `O=C(Nc1ccc(C(F)(F)F)cc1)C1C(=O)C2CCC(C2)C1=O` (stereo not drawn) (as salt: sodium) [Example 26, N-[4-(trifluoromethyl)phenyl]-2,4-dioxobicyclo[3.2.1]octane-3-carboxamide], the melting point was 250 to 260 °C.
Turning to `CC1(C)C2CC1C(=O)C(C(=O)Nc1ccc(C(F)(F)F)cc1)C2=O` (stereo not drawn) (as salt: sodium) [Example 28, 6,6-Dimethyl-2,4-dioxo-N-[4-(trifluoromethyl)phenyl]bicyclo[3.1.1]heptane-3-carboxamide], the melting point is above 230 °C.
`CC1(C)C2CC1C(=O)C(C(=O)Nc1cccc(C(F)(F)F)c1)C2=O` (stereo not drawn) (as salt: sodium) [Example 29, 6,6-Dimethyl-2,4-dioxo-N-[3-(trifluoromethyl)phenyl]bicyclo[3.1.1]heptane-3-carboxamide]: the melting point was above 230 °C.
The compound `CC1(C)C2CC1C(=O)C(C(=O)Nc1ccc(F)c(Cl)c1)C2=O` (stereo not drawn) (as salt: sodium) [Example 30, 6,6-Dimethyl-2,4-dioxo-N-(3-chloro-4-fluorophenyl)bicyclo[3.1.1]heptane-3-carboxamide] showed a melting point above 230 °C.
As for `CC1(C)C2CC1C(=O)C(C(=O)Nc1ccc(F)c(C(F)(F)F)c1)C2=O` (stereo not drawn) (as salt: sodium) [Example 31, 6,6-Dimethyl-2,4-dioxo-N-[4-fluoro-3 (trifluoromethyl)phenyl]bicyclo[3.1.1]heptane-3-carboxamide], the melting point was above 230 °C.
As for `CC1(C)C2CC1C(=O)C(C(=O)Nc1ccc(Cl)c(Cl)c1)C2=O` (stereo not drawn) (as salt: sodium) [Example 32, 6,6-Dimethyl-2,4-dioxo-N-(3,4-dichlorophenyl)bicyclo[3.1.1]heptane-3-carboxamide], the melting point is above 230 °C.
On the same count and under the same terms, the same measure for `CC1(C)C2CC1C(=O)C(C(=O)Nc1cc(Cl)cc(Cl)c1)C2=O` (stereo not drawn) (as salt: sodium) [Example 33, 6,6-Dimethyl-2,4-dioxo-N-(3,5-dichlorophenyl)bicyclo[3.1.1]heptane-3-carboxamide]: above 230 °C; for `CC1(C)C2CC1C(=O)C(C(=O)Nc1ccc(F)cc1)C2=O` (stereo not drawn) (as salt: sodium) [Example 34, 6,6-Dimethyl-2,4-dioxo-N-(4-fluorophenyl)bicyclo[3.1.1]heptane-3-carboxamide]: above 230 °C.
The compound `CC1(C)C2CC1C(=O)C(C(=O)Nc1cccc(Cl)c1)C2=O` (stereo not drawn) (as salt: sodium) [Example 35, 6,6-Dimethyl-2,4-dioxo-N-(3-chlorophenyl)bicyclo[3.1.1]heptane-3-carboxamide] showed a melting point above 230 °C.
On to `CC1(C)C2CC1C(=O)C(C(=O)Nc1ccc(Cl)cc1)C2=O` (stereo not drawn) (as salt: sodium) [Example 36, 6,6-Dimethyl-2,4-dioxo-N-(4-chlorophenyl)bicyclo[3.1.1]heptane-3-carboxamide], for which the melting point was above 230 °C.
As for `O=C(Nc1cc(C(F)(F)F)cc(C(F)(F)F)c1)C1C(=O)C2CCC(CC2)C1=O` (stereo not drawn) (as salt: sodium) [Example 37, N-[3,5-bis(trifluoromethyl)phenyl]-2,4-dioxobicyclo[3.2.2]nonane-3-carboxamide], the melting point lay in the range of 286 to 288 °C.
The same measure, in the same setting: the figure for `CC1(C)C2CC[C@]1(C)C(=O)C(C(=O)Nc1cc(Cl)cc(Cl)c1)C2=O` (stereo partly drawn) [Example 3, (1S)-N-(3,5-dichlorophenyl)-1,8,8-trimethyl-2,4-dioxobicyclo[3.2.1]octane-3-carboxamide] is 112 to 114 °C; for `CC1(C)C2CC[C@]1(C)C(=O)C(C(=O)Nc1cccc([N+](=O)[O-])c1)C2=O` (stereo partly drawn) [Example 5, (1S)-N-(3-nitrophenyl)-1,8,8-trimethyl-2,4-dioxobicyclo[3.2.1]octane-3-carboxamide] it is 100 to 102 °C.
`CC1(C)C2CC[C@]1(C)C(=O)C(C(=O)Nc1ccc([N+](=O)[O-])cc1)C2=O` (stereo partly drawn) [Example 6, (1S)-N-(4-nitrophenyl)-1,8,8-trimethyl-2,4-dioxobicyclo[3.2.1]octane-3-carboxamide]: the melting point lay in the range of 170 to 172 °C.
Turning to `CC1(C)C2CC[C@]1(C)C(=O)C(C(=O)Nc1ccc(Cl)c(C(F)(F)F)c1)C2=O` (stereo partly drawn) [Example 7, (1S)-N-[4-chloro-3-(trifluoromethyl)phenyl]-1,8,8-trimethyl-2,4-dioxobicyclo [3.2.1]octane-3-carboxamide], the melting point lay in the range of 118 to 120 °C.
Regarding `Cc1ccc(NC(=O)C2C(=O)C3CC[C@](C)(C2=O)C3(C)C)cc1` (stereo partly drawn) [Example 11, (1S)-N-[4-methylphenyl]-1,8,8-trimethyl-2,4-dioxobicyclo[3.2.1]octane-3-carboxamide], the melting point lay within 80 to 82 °C.
`CC1(C)C2CC[C@@]1(C)C(=O)C(C(=O)Nc1ccc(Cl)c(Cl)c1)C2=O` (stereo partly drawn) [Example 14, (1R)-N-(3,4-dichlorophenyl)-1,8,8-trimethyl-2,4-dioxobicyclo[3.2.1]octane-3-carboxamide] registered a melting point of 89 to 91 °C.
`CC1(C)C2CC[C@@]1(C)C(=O)C(C(=O)Nc1cccc(C(F)(F)F)c1)C2=O` (stereo partly drawn) [Example 17, (1R)-N-[3-(trifluoromethyl)phenyl]-1,8,8-trimethyl-2,4-dioxobicyclo[3.2.1] octane-3-carboxamide] gave a melting point of 66 to 68 °C.
As for `O=C(Nc1ccc(Cl)c(Cl)c1)C1C(=O)C2CCC(C2)C1=O` (stereo not drawn) [Example 24], the “Percent Increase in Steady State Current Of human Kv1.1/Kvβ1 @ a concentration of 50 μM” value in data set [1] turned out to be 28%.
`CC1(C)C2CC1C(=O)C(C(=O)Nc1ccc(C(F)(F)F)cc1)C2=O` (stereo not drawn) [Example 28, 6,6-Dimethyl-2,4-dioxo-N-[4-(trifluoromethyl)phenyl]bicyclo[3.1.1]heptane-3-carboxamide]: the activation at 50 µM in data set [1] stood at 190%.
As for `CC1(C)C2CC1C(=O)C(C(=O)Nc1cccc(C(F)(F)F)c1)C2=O` (stereo not drawn) [Example 29, 6,6-Dimethyl-2,4-dioxo-N-[3-(trifluoromethyl)phenyl]bicyclo[3.1.1]heptane-3-carboxamide], in data set [1], the activation at 50 µM amounted to 67%.
As for `CC1(C)C2CC1C(=O)C(C(=O)Nc1ccc(F)c(Cl)c1)C2=O` (stereo not drawn) [Example 30, 6,6-Dimethyl-2,4-dioxo-N-(3-chloro-4-fluorophenyl)bicyclo[3.1.1]heptane-3-carboxamide], in data set [1], the activation at 50 µM came out at 124%.
The same measure, in the same setting: the same measure for `CC1(C)C2CC1C(=O)C(C(=O)Nc1ccc(F)c(C(F)(F)F)c1)C2=O` (stereo not drawn) [Example 31, 6,6-Dimethyl-2,4-dioxo-N-[4-fluoro-3 (trifluoromethyl)phenyl]bicyclo[3.1.1]heptane-3-carboxamide]: 282%; for `CC1(C)C2CC1C(=O)C(C(=O)Nc1ccc(Cl)c(Cl)c1)C2=O` (stereo not drawn) [Example 32, 6,6-Dimethyl-2,4-dioxo-N-(3,4-dichlorophenyl)bicyclo[3.1.1]heptane-3-carboxamide]: 311%; for `CC1(C)C2CC1C(=O)C(C(=O)Nc1cc(Cl)cc(Cl)c1)C2=O` (stereo not drawn) [Example 33, 6,6-Dimethyl-2,4-dioxo-N-(3,5-dichlorophenyl)bicyclo[3.1.1]heptane-3-carboxamide]: 326%.
Regarding `CC1(C)C2CC1C(=O)C(C(=O)Nc1ccc(F)cc1)C2=O` (stereo not drawn) [Example 34, 6,6-Dimethyl-2,4-dioxo-N-(4-fluorophenyl)bicyclo[3.1.1]heptane-3-carboxamide], in data set [1], the activation at 50 µM is 94%.
Take `CC1(C)C2CC1C(=O)C(C(=O)Nc1cccc(Cl)c1)C2=O` (stereo not drawn) [Example 35, 6,6-Dimethyl-2,4-dioxo-N-(3-chlorophenyl)bicyclo[3.1.1]heptane-3-carboxamide]: in data set [1], the activation at 50 µM was 107%.
